The data set in a line: solvent given as SMILES.
Setting [1] is: in O=P(c1ccccc1)(c1ccccc1)c1ccccc1Oc1ccccc1P(=O)(c1ccccc1)c1ccccc1.

For the molecule `CCN(CC)c1ccc2c(c1)OC1=CC(N(CC)CC)C=CC1[C+]2c1ccccc1C(=O)O` (configuration not stated), the fluorescence lifetime worked out at 2.69 ns (in CC(C)O); 3.18 ns (in CCCCCCCCO); 3.09 ns (in CCCCCCO); 2.98 ns (in CCCCO); 2.79 ns (in CCCO); 2.45 ns (in CCO). Further, the fluorescence lifetime runs as follows: (in CO) 2.15 ns; (in O) 1.52 ns; (in [2H]O[2H]) 1.64 ns.

`c1ccc(-c2nc(-c3ccccc3)nc(-c3ccc(-n4c5ccccc5c5c6c(ccc54)-c4ccccc4C6(c4ccccc4)c4ccccc4)cc3)n2)cc1` had a fluorescence lifetime under setting [1] of 3.3 ns.

For `CC[n+]1c(C=C2C(=O)C(C=C3N(C)c4ccc(Cl)cc4C3(C)C)=C2[O-])sc2ccccc21`, the fluorescence lifetime reads like this: (in CO) 0.26 ns; (in ClC(Cl)Cl) 1.65 ns.

On to `Cc1cccc2nc3[nH]c(=O)[nH]c(=O)c3nc12`, for which the fluorescence lifetime (in CC#N) came to 0.9 ns.

In the case of `CCC1=C(C)C2=Cc3cc(I)cn3[B-](F)(F)[N+]2=C1C`, the fluorescence lifetime (in C1CCCCC1) amounted to 0.489 ns; the fluorescence lifetime (in CC(C)=O) was found to be 0.317 ns; the fluorescence lifetime (in CCO) was found to be 0.349 ns; the fluorescence lifetime (in CCOC(C)=O) is 0.362 ns; the fluorescence lifetime (in CO) amounted to 0.324 ns; the fluorescence lifetime (in OCC(F)(F)F) worked out at 0.308 ns.

Turning to `CCN1C(=CC2=C([O-])C(=Cc3[se]c4ccccc4[n+]3CC)C2=O)[Se]c2ccccc21`, the fluorescence lifetime runs as follows: (in CO) 1.17 ns; (in ClC(Cl)Cl) 4.15 ns.

In turn, `CCCCc1cc(-c2cccc(COC)c2)oc1-c1cccc(-c2oc(-c3cccc(COC)c3)cc2CCCC)c1` yielded a fluorescence lifetime (in ClC(Cl)Cl) of 1.4 ns.

The molecule `CC(=O)Nc1cc2ccc3cccc4ccc(c1)c2c34` registered a fluorescence lifetime (in CCCCCCC) of 108 ns.

In the case of `Cc1ccc(-c2ccc(/C=C/c3ccc(Br)n3C)cn2)nc1`, under “in CC#N”, the fluorescence lifetime is 0.66 ns.

`CCCCn1c2ccc(C#N)cc2c2cc(C#N)cc(-c3ccc(N(c4ccccc4)c4ccccc4)cc3)c21`: the fluorescence lifetime (in ClCCl) stood at 1.91 ns.

In turn, `COc1cc(OC)c2c(c1)c1cc3oc(=O)cc(C)c3cc1c1cc(OC)cc(OC)c12` registered a fluorescence lifetime (in ClC(Cl)Cl) of 7.5 ns.

Turning to `COc1cc(N(c2ccccc2)c2ccc(C=C(C#N)C#N)c(OC)c2)ccc1C=C(C#N)C#N`, the fluorescence lifetime is 0.925 ns (in C1COCCO1); 0.026 ns (in CC#N); 0.049 ns (in CC(C)=O); 0.22 ns (in CCOC(C)=O); 0.23 ns (in CN(C)C=O); 0.11 ns (in CO). In addition, the fluorescence lifetime is 0.051 ns (in Cc1ccccc1), 0.23 ns (in ClC(Cl)Cl) and 0.15 ns (in ClCCl).

With `CC[n+]1nc2cc3c4c(c2c2cc(F)ccc21)CCCN4CCC3`, for the setting “in O”, the fluorescence lifetime is 4.4 ns.

Take `C(=C\c1ccc2ccccc2c1)/c1ccc(Nc2ccccc2)cc1`: the fluorescence lifetime stood at 0.43 ns (in CC#N) and 0.34 ns (in CCCCCC).

In the case of `CCc1ccc(-c2nc(-c3ccc(-n4c5ccccc5c5ccccc54)cc3)cc(-c3ccc(-n4c5ccccc5c5ccccc54)cc3)n2)cc1`, the fluorescence lifetime stood at 3.72 ns (in C1CCOC1), 7.1 ns (in CN(C)C=O), 2.05 ns (in Cc1ccccc1) and 3.57 ns (in ClC(Cl)Cl).

Molecule `CCOC(=O)CCCCCn1c2ccc(Cl)cc2c(=O)c2cc3c(cc21)c(=O)c1cc(Cl)ccc1n3CCCCCC(=O)OCC` showed a fluorescence lifetime (in CO) of 22.1 ns.

With `Cc1cc(-c2ccc(-n3c4ccccc4c4ccccc43)cc2)nc(-c2ccc(-n3c4ccccc4c4ccccc43)cc2)n1`, the fluorescence lifetime was determined as 4.26 ns (in C1CCOC1), 7.57 ns (in CN(C)C=O), 2.44 ns (in Cc1ccccc1) and 4.11 ns (in ClC(Cl)Cl).

For the molecule `F[B-]1(F)n2c(cc3c4ccccc4oc32)C(c2ccccc2)=C2C=c3c(oc4ccccc34)=[N+]21`, the fluorescence lifetime stood at 3.99 ns (in C1CCCCC1), 4.1 ns (in CCOC(C)=O) and 4.02 ns (in CO).

`Cn1c(/C=C/c2ccc(/C=C/c3nc4ccccc4[nH]3)cc2)[n+](C)c2ccccc21` registered a fluorescence lifetime (in C1CCOC1) of 1.43 ns; a fluorescence lifetime (in CC#N) of 1.16 ns; a fluorescence lifetime (in CC(C)=O) of 1.15 ns; a fluorescence lifetime (in CN(C)C=O) of 1.11 ns; a fluorescence lifetime (in CO) of 0.773 ns; a fluorescence lifetime (in CS(C)=O) of 1.22 ns. The fluorescence lifetime (in O) was determined as 0.42 ns.

For the molecule `CN(C)c1ccc(/C=C/c2ccc(-c3ccc(/C=C/c4ccc(N(C)C)cc4)s3)s2)cc1`, the fluorescence lifetime amounted to 1.08 ns (in C1CCOC1); 1.12 ns (in CC#N); 1.11 ns (in CC(C)=O); 1.15 ns (in CN(C)C=O); 1.03 ns (in Cc1ccccc1).

`Cc1ccccc1` registered a fluorescence lifetime (in C1CCCCC1) of 50 ns.

Take `O=[N+]([O-])c1ccc(/C2=C3N=C(C(c4ccccc4)=C/3c3ccccc3)/C(c3ccc([N+](=O)[O-])cc3)=c3\[nH]/c(c(-c4ccccc4)c3-c3ccccc3)=C(/c3ccc([N+](=O)[O-])cc3)C3=N/C(=C(/c4ccc([N+](=O)[O-])cc4)c4[nH]c2c(-c2ccccc2)c4-c2ccccc2)C(c2ccccc2)=C3c2ccccc2)cc1`: the fluorescence lifetime (in ClCCl) was found to be 0.395 ns.

Turning to `Cc1nc(-c2ccc(-n3c4ccccc4c4ccccc43)cc2)cc(-c2ccc(-n3c4ccccc4c4ccccc43)cc2)n1`, the fluorescence lifetime reads like this: (in C1CCOC1) 4.1 ns; (in CN(C)C=O) 6.95 ns; (in Cc1ccccc1) 2.05 ns; (in ClC(Cl)Cl) 3.86 ns.

The molecule `Cc1cc(-c2ccc(-c3ccccc3)cc2)nc(-c2ccc(-n3c4ccccc4c4ccccc43)cc2)n1` yielded a fluorescence lifetime (in C1CCOC1) of 3.36 ns, a fluorescence lifetime (in CN(C)C=O) of 12.2 ns, a fluorescence lifetime (in Cc1ccccc1) of 1.15 ns and a fluorescence lifetime (in ClC(Cl)Cl) of 3.19 ns.

`c1ccc([B-]2(c3ccccc3)Oc3ccc4ccccc4c3-c3c4ccccc4nc[n+]32)cc1`: for the setting “in Cc1ccccc1”, the fluorescence lifetime came to 9.59 ns.

As to `Cc1ccc(C)cc1`, the fluorescence lifetime (in C1CCCCC1) came to 47 ns.

Regarding `CS1(C)C(/C=C/C2=C(c3ccc(C(=O)O)cc3)C(=C/C=C3/N(CCCCS(=O)(=O)[O-])c4ccccc4S3(C)C)/CCC2)=[N+](CCCCS(=O)(=O)[O-])c2ccccc21`, the fluorescence lifetime came out at 1.08 ns (in CC(C)=O); 0.93 ns (in CCO); 0.72 ns (in CO); 1.26 ns (in CS(C)=O); 1.31 ns (in ClC(Cl)Cl); 1.19 ns (in ClCCl). The fluorescence lifetime (in O) came to 0.33 ns.

As for `N#Cc1c(-c2ccc(N(c3ccccc3)c3ccccc3)cc2)c(C#N)c(-c2ccc(N(c3ccccc3)c3ccccc3)cc2)c(C#N)c1-c1ccc(N(c2ccccc2)c2ccccc2)cc1`, under setting [1], the fluorescence lifetime turned out to be 6.21 ns.

Turning to `COc1ccc(-n2c(C)ccc2C)cc1`, the fluorescence lifetime (in CC#N) was determined as 5 ns.

`Cc1cc(C(F)(F)F)nc2c1ccc1nc(-c3ccc(F)c(F)c3)cn12`: the fluorescence lifetime is, setting by setting: (in CC#N) 8.58 ns; (in CCCCOC(C)=O) 7.28 ns; (in CCOC(C)=O) 7.26 ns; (in CO) 8.3 ns; (in c1ccccc1) 6.69 ns.

Turning to `C1=CC2=CC=CC3C=c4c(cc5cccc6cccc4c65)C(=C1)C23` (configuration not stated), the fluorescence lifetime (in ClCCl) was 7.18 ns.

`Cc1cc(-c2ccc(C(C)(C)C)cc2)cc(C)[o+]1` yielded a fluorescence lifetime (in CC#N) of 8 ns and a fluorescence lifetime (in ClCCl) of 2.1 ns.

On to `c1ccc2c(c1)[nH]c1c3ccccc3[nH]c21`, for which, where the note is “in CCCO”, the fluorescence lifetime was 5.5 ns.

For the origin of these results see the Deep4Chem optical property database.
